Publication PMC8328489, “Automated Synthesis and Initial Evaluation of (4′-Amino-5′,8′-difluoro-1′H-spiro[piperidine-4,2′-quinazolin]-1-yl)(4-[^18F]fluorophenyl)methanone for PET/MR Imaging of Inducible Nitric Oxide Synthase” (Molecular Imaging, 2021)
Read-outs that look alike come from different tables or passages of the source. One block for each compound: values may come before it.

What was measured:
[1] = Log P measurement (1-octanol/phosphate buffer, UV); type: physicochemical; conditions: 1-octanol / 0.02 M phosphate buffer; 1-octanol / phosphate buffer pH 7.4
Protocol: The partition coefficient of FBAT, determined between 1-octanol and 0.02 M phosphate buffer at pH 7.4, was measured by UV spectrophotometer (SPARK 10 M from Tecan) at wavelength 230 nm.

nNOS = tested on: nNOS; set-up: method as in PMID 11327580; conditions: cited from earlier work
iNOS [2] = conditions: cited from earlier work
eNOS = conditions: cited from earlier work; for selectivity vs. eNOS: iNOS vs. eNOS
[3] = dog, 10 min postinjection; cited from earlier work
[4] = within 5 min postinjection; cited from earlier work
[5] = tested on: murine microglial BV2 cells; assay: In vitro [^18F]FBAT uptake assay; type: cell-based; conditions: pretreatment 0.1 mM or 1 mM for 1 h
Protocol: BV2 cells were cultured as described above, washed three times with fresh medium, pretreated with a selective iNOS inhibitor, aminoguanidine (AMG), (0, 1, or 0.1 mM) for 1 h, and then treated with cell culture media containing LPS and the inhibitor. At the indicated time points, the cells were washed thrice with fresh cell culture media, then incubated in fresh cell culture media continuing the radiotracer [^18F]FBAT at 0.37 MBq/mL for 15, 30, or 60 min, harvested by gentle scraping, and pelleted by centrifugation at 1500 g for 2 min. The weight of the cell pellet and 0.1 mL of the radioactive supernatant was determined. A Packard 5500 gamma counter (PerkinElmer, Billerica, MA, USA) was used to quantify radioactivity as cpm/g cells or cpm/mL media, respectively. Cell-to-medium radioactivity concentration ratios were calculated and plotted over time to evaluate the kinetics of accumulation of the radiotracer.
(§1) iNOS is the enzyme responsible for NO generation in BV2 cells; therefore, accumulation of [^18F]FBAT in BV2 cells before or after iNOS inhibitor versus NO production was also assessed.

iNOS [6] = assay: Immunohistochemistry of iNOS in brain sections; type: in vivo, C57BL/6 mice; conditions: pretreatment, vs LPS 3 h group
Protocol: After imaging, mice were terminally anesthetized with ketamine/xylazine and perfused with 4% paraformaldehyde, and the brains were dissected, postfixed overnight in 4% paraformaldehyde at 4°C. Five-micrometer thick paraffin-embedded brain tissues were deparaffinized, rehydrated, microwaved in 10 mM citrate buffer (pH 6.0) at 100°C for 10 min for antigen retrieval, washed, incubated in 3% […] for 15 min at RT to inhibit endogenous peroxidases, and blocked in blocking solution for 60 min at RT.
Sections were incubated with primary NOS2/NOS1 antibodies (Cat# MAB 1627; Abnova, Walnut, CA, USA) diluted 1 : 100 overnight at 4°C, developed using the Vectastain Elite kit (Vector Laboratories, Burlingame, CA) following the manufacturer's instructions, and examined using an AxioScope A1 microscope (Zeiss, Oberkochen, Germany) equipped with an Axiocam 512 color digital camera (Zeiss).
The immunohistochemistry images were converted into 8-bit grayscale images in the range. Immunostaining intensity was manually measured in the region of interest (ROI). The median (25%, 75% interquartile range) percentage score for each group (control, LPS 3 h, and LPS 24 h) was calculated as the sum of the individual number of slides within the group.

iNOS [7] = molecular target: T1, iNOS (Mus musculus, UniProt P29477); assay: In vivo brain PET/MR imaging of LPS-induced iNOS expression (SUV, SUR, AUC) incl. aminoguanidine blocking; set-up: species or system C57BL/6 mice; conditions: 50 mg/kg i.p. pretreatment
T1 construct: tracer to detect iNOS expression in mice injected with lipopolysaccharide (LPS) to induce brain inflammation; from tissue; host or cells: brain of living C57BL/6 mice (LPS-induced); fixed brain sections for IHC
Protocol: For the imaging experiments, twelve C57BL/6 mice were injected i.p. with 0.9% NaCl, eighteen mice were injected i.p. with 0.1 mL of LPS in saline (5 mg/kg), and six mice were injected i.p. with aminoguanidine (Sigma-Aldrich) 30 min prior to 5 mg/kg LPS. In vivo imaging was performed 3 h or 24 h after injection of LPS; then, the mice were immediately humanely euthanized and the brains were removed for immunostaining.
Mice (n = 30) were anesthetized with 2% isoflurane (in oxygen) and injected with [^18F]FBAT (11.1 MBq; 0.3 mCi) via the tail vein. Dynamic PET images were obtained in fully three-dimensional list mode for 30 min using a small animal SuperArgus 2r PET system (SEDECAL, Madrid, Spain) or 7T PETMR Inline (Bruker, Rheinstetten, Germany; energy window, 350-650 keV; timing window, 6 ns). Images were acquired every 10 s for 12 images, 60 s for three images, 300 s for three images, or 600 s for […]. The anatomical structure of the brain was imaged using T2 MRI. The MRI sequences included 0.5 mm thick T2 Turbo RARE high-resolution images (TR = 3000 ms, TE, 46 ms, matrix, 512 × 256, average, 40, slice number, 30, field of view, 20 × 10 mm).
After determining the optimal imaging time point for [^18F]FBAT, we performed a blocking study using a selective iNOS inhibitor to assess the specificity of the tracer for iNOS. Separate 7T PET/MR studies with [^18F]FBAT were performed for mice (n = 6) administered a bolus of aminoguanidine (50 mg/kg i.p.) 30 min prior to administration of [^18F]FBAT. The time course of [^18F]FBAT radioactivity in the brain after administration of the iNOS inhibitor was assessed and compared to that of the mice in the LPS 3 h group.
Images were reconstructed by the Fourier rebinning algorithm and two-dimensional filtered back projection using a ramp filter with a cutoff at Nyquist. The regional radioactivity concentration (kBq/cc) of [^18F]FBAT was estimated from the mean pixel values within the region of interest (ROI) corresponding to MR images of various organs and regions of the brain. ROI for carotid artery, heart muscle, lung, liver, spleen, and kidney were defined and time activity curves (TACs) generated. TACs for whole brain, cortex, cerebellum, and brainstem were also determined as described above.
The concentration of radioactivity (kBq/cc, μCi/cc) was converted to standardized uptake value (SUV), and the mean and standard deviation (SD) of radiotracer accumulation values were calculated for different organs and regions of the brain. Data were analyzed with PMOD 4.0 software (PMOD Technologies Ltd., Zurich, Switzerland).

[8] = tested on: murine microglial BV2 cells; assay: LPS-dependent nitric oxide (NO) production, Griess assay; type: cell-based; conditions: pretreatment 0.1 or 1 mM
Protocol: Briefly, murine microglial BV2 cells were cultured in high-glucose Dulbecco's modified Eagle's medium (DMEM) supplemented with 100 U/mL penicillin. The cells were cultured in 6-well plates (~50,000 cells/well) in a humidified 5% CO2 atmosphere at 37°C until ∼60–70% confluent, washed three times with fresh media, and cultured in complete media containing LPS (0, 50, 100, or 200 ng/mL, Sigma-Aldrich, St. Louis, MO, USA). At the indicated time points, the culture media were harvested.
To assay NO, 100 μL aliquots of culture media were added to 100 μL of Griess reagent (1% sulfanilamide in 5% H3PO4) in 96-well plates, incubated at room temperature for 10 min; then, 50 μL NED Griess reagent (0.1% N-naphthyl-ethylenediamine dihydrochloride) was added and incubated for 10 min, and the absorbance values were determined at 540 nm using a TECAN Sunrise ELISA Reader. Fresh culture medium was used as a blank. The concentrations of nitrite were determined by comparison with a standard curve of sodium nitrite prepared in cell culture media.
as §1

logP [1]: 1.4 ± 0.27
Structure (SMILES): NC1=NC2(CCN(C(=O)c3ccc(F)cc3)CC2)Nc2c(F)ccc(F)c21 [FBAT, (4′-amino-5′,8′-difluoro-1′H-spiro[piperidine-4,2′-quinazolin]-1-yl)(4-fluorophenyl)methanone]

Structure (SMILES): NC1=NC(c2ccc(F)cc2)Cc2cccc(F)c21 (stereo not drawn) [FFDI, 8-fluoro-3-(4-fluorophenyl)-3,4-dihydro-1-isoquino-linamine]
selectivity for iNOS vs. nNOS (nNOS): 100 fold | IC50 (iNOS [2]; read-out: IC50 (affinity for iNOS)): 160 nM | selectivity for iNOS vs. eNOS (eNOS): ~ 1000 fold

Structure (SMILES): COC(=O)[C@@H](N)CCCN=C(N)N[N+](=O)[O-] [[^11C]L-NAME, N-omega-nitro-L-arginine [^11C]methyl ester]
fraction of radioactivity present as [^11C]methanol (metabolite) [3]: 65% | IC50 (iNOS [2]; read-out: iNOS IC50): 20000 nM

Structure (SMILES): CSC(=N)N [[^11C]MITU, S-[^11C]methylisothiourea]
IC50 (iNOS [2]; read-out: iNOS IC50): 3000 nM

Structure (SMILES): [11CH3]SC(=N)N [[^11C]MITU, S-[^11C]methylisothiourea]
selectivity vs. eNOS (eNOS): 2.3 fold

Structure (SMILES): Cc1cc(N)nc(CC(C)F)c1 (stereo not drawn) [[^18F]9, [^18F]6-(2-fluoropropyl)-4-methyl-pyridin-2-amine]
parent fraction of activity in the blood [4]: 40.3%

Structure (SMILES): N=C(N)SCC[18F] [[^18F]FEITU, S-(2-[^18F]fluoroethyl)isothiourea]
IC50 (iNOS [2]; read-out: iNOS IC50): 140 nM | selectivity vs. eNOS (eNOS): 9 fold

Structure (SMILES): N=C(N)NN [aminoguanidine, reference compound]
effect on LPS-induced [^18F]FBAT accumulation in BV2 cells [5]: inhibited | effect on LPS-induced [^18F]FBAT accumulation in BV2 cells ([5]; listed as AMG): significantly reduced | effect on LPS-induced iNOS immunoactivity, brainstem (iNOS [6]): significantly reduced | effect on LPS-induced iNOS immunoreactivity, cortex (iNOS [6]): significantly reduced | effect on [^18F]FBAT accumulation (SUV, AUC, Vt) in brain of LPS-induced mice (iNOS [7]): significantly decreased | effect on [^18F]FBAT accumulation (SUV, AUC, Vt) in brain of LPS-induced mice (iNOS [7]; listed as Aminoguanidine): significantly reduced | effect on LPS-induced NO production [8]: completely abolished
